Values of other authors in patent publication US20210212952A1, “METHOD AND ENCAPSULATED SUBSTANCE FOR TREATING PAIN DUE TO A VARIETY OF DISEASES” (priority 2020, published 2021).

Conditions: in vivo, po

## O=C1CC[C@@]2(O)[C@H]3Cc4ccc(O)c5c4[C@@]2(CCN3CC2CC2)[C@H]1O5 [Naltrexone, naltrexone]
  absorbed into the blood stream: 96%
